Measured values published in US20240150340A1, “CDK Inhibitors And Their Use As Pharmaceuticals” (Prelude Therapeutics Incorporated, priority 2022, published 2024).

Assays:
CDK2/Cyclin E2 = target: T1, CDK2/Cyclin E2 (Homo sapiens, UniProt P24941); assay: CDK2/CyclinE2 Enzymatic Activity Assay (TR-FRET); format: biochemical; conditions: ATP 1 mM final, read-out: CDK2_E1 IC50
T1 construct: Recombinant protein complex CDK2/Cyclin E2, expressed from insect cell, was purchased from ProQinase
Method: CDK2/CyclinE2 Enzymatic Activity Assay
The inhibitory activity of compounds was evaluated in vitro using TR-FRET assay with white 384-well low volume microplate (Greiner Bio-One). CDK2/Cyclin E2 catalyzed phosphorylation of peptide in the presence and absence of compounds was measured and used in IC50 determination. Recombinant protein complex CDK2/Cyclin E2, expressed from insect cell, was purchased from ProQinase. Testing compounds were dissolved in DMSO at 1 mM and tested in 9-dose IC50 mode. The reaction mixture was prepared by mixing CDK2/CyclinE2 (1 nM final), ULight-4E-BP1 (50 nM final, Perkinelmer, TRF0128-D), and ATP (1 mM final) in assay buffer (20 mM of HEPES pH 7.4, 1 mM of EGTA, 0.05% BSA, 0.005% Tween 20, and 1 mM TCEP). The compound of interest in DMSO was added to each well in 3-fold serial dilution by dispenser (TECAN D300E) to make a 9.9 μL of reaction mixture. After 20 minutes preincubation at room temperature, 0.1 μL MgCl2 (10 mM final) was added to initiate the reaction. Following a 45 minute incubation at 37° C., the reaction was stopped by addition of 2 μL of quenching buffer consisting of Lance detection buffer (Perkinelmer CR97-100C), LANCE Ultra Europium-anti-P-4E-BP1 (Perkinelmer, TRF0216-D), EDTA, and incubated at room temperature for additional 60 minutes in the dark. The reaction signal was measured by Envision multimode plate reader (PerkinElmer, 2102-0010). IC50 values were determined by fitting the data to the standard 4 parameters with Hill Slope using GraphPad Prism software.

CDK4/Cyclin D1 = target: T2, CDK4/Cyclin D1 (Homo sapiens, UniProt P11802); assay: CDK4/CyclinD1 Enzymatic Activity Assay (TR-FRET); format: biochemical; conditions: ATP 2 mM final, read-out: CDK4_D1 IC50
T2 construct: purchased ProQinase; host or cells: insect cell
Method: CDK4/CyclinD1 Enzymatic Activity Assay
The inhibitory activity of compounds was evaluated in vitro using TR-FRET assay with white 384-well low volume microplate (Greiner Bio-One). CDK4/Cyclin D1 catalyzed phosphorylation of peptide in the presence and absence of compounds was measured and used in IC50 determination. Recombinant protein complex CDK4/Cyclin D1, expressed from insect cell, was purchased from ProQinase. Testing compounds were dissolved in DMSO at 1 mM and tested in 9-dose IC50 mode. The reaction mixture was prepared by mixing CDK4/CyclinD1 (1 nM final), ULight-4E-BP1 (100 nM final, Perkinelmer, TRF0128-D), and ATP (2 mM final) in assay buffer (20 mM of HEPES pH 7.4, 1 mM of EGTA, 0.05% BSA, 0.005% Tween 20, and 1 mM TCEP). The compound of interest in DMSO was added to each well in 3-fold serial dilution by the dispenser (TECAN D300E) to make a 9.9 μL of reaction mixture. After 20 minutes preincubation at room temperature, 0.1 μL MgCl2 (10 mM final) was added to initiate the reaction. Following a 45-minute incubation at 37° C., the reaction was stopped by addition of 2 μL of quenching buffer consisting of Lance detection buffer (Perkinelmer CR97-100C), LANCE Ultra Europium-anti-P-4E-BP1 (Perkinelmer, TRF0216-D), EDTA, and incubated at room temperature for additional 60 minutes in dark. The reaction signal was measured by Envision multimode plate reader (PerkinElmer, 2102-0010). IC50 values were determined by fitting the data to the standard 4 parameters with Hill Slope using GraphPad Prism software.

OVCAR3 p-RB = assay: pRB ICW Assay in OVCAR3 Cells; format: cell-based; conditions: Homo sapiens, OVCAR-3, incubated with compound for 2 hours
Method: pRB ICW Assay in OVCAR3 Cells
OVCAR3 cells were maintained in RPMI (Corning, Catalog #: 10-040-CV) supplemented with 10% v/v FBS (Gibco, Catalog #: 26140-079), 1% v/v Penicillin Streptomycin (Gibco, Catalog #15140-122.) OVCAR3 cells grown at log phase were trypsinized, counted, and resuspended in fresh medium to reach a final density of 6.7e4 cells/mL and 75 μL of culture were dispensed into a 384-well plate (Falcon, cat #353962) using a Multidrop Combi dispenser (Thermo Scientific). The next day, compounds were dispensed as a 9-point, ½ log serial dilution using a Tecan digital dispenser (D300e), and cells were incubated with compound for 2 hours in a humidified incubator at 37° C. A reference compound at a final concentration of 10 μM was used as a control for maximum inhibition. Each compound was tested in duplicate for each experiment. At the end of the incubation, […] (Electron Microscopy, cat #15710) was slowly added to each well and the plate was incubated at room temperature (RT) for 30 minutes to fix cells. Cells were then permeabilized by incubating with 50 μL/well of wash buffer (1×PBS with 0.1% Triton X-100) 5×5 minutes, followed by 1 hour blocking with 30 μL/well of Odyssey blocking buffer (Li-COR, cat #927-40000), at RT. Anti-phosphor RB antibody (Cell signaling 8516S) was diluted 1:1000 in Odyssey blocking buffer and 20 μL was added to all wells and incubated overnight in 4° C. with gently rocking. The next day, cells were washed 5×5 min with 50 μL/well of wash buffer, followed with 1 hour incubation with secondary antibody and DRAQ5 diluted in Odyssey blocking buffer (1:500 dilution for secondary antibody and 1:2000 dilution for DRAQ5), 5×5 min washes, and one last wash with water. Plates were dried in 37° C. oven for 5 minutes and scanned using Li-COR Odyssey CLx imaging system to acquire intensities at 700 and 800 nm channels.

T2 sequence (P11802 whole entry): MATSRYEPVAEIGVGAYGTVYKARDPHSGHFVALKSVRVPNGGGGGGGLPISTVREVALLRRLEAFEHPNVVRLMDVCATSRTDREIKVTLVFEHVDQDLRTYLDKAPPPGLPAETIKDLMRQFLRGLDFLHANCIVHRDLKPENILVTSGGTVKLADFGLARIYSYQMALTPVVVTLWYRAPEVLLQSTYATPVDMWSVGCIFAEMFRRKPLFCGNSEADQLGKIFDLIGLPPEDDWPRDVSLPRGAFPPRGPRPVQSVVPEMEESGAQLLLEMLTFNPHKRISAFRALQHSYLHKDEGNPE
T2 sequence (P24385 whole entry partner): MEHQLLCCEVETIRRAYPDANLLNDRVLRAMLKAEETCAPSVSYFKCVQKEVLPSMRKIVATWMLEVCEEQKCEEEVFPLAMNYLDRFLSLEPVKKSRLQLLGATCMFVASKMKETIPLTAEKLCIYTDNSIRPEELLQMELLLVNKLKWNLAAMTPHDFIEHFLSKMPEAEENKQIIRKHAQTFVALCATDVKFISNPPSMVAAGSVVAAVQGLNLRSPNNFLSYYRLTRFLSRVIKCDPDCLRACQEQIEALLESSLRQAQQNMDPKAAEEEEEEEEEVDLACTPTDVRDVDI

Structure (SMILES) | IC50 (CDK2/Cyclin E2) | IC50 (CDK4/Cyclin D1) | IC50 (OVCAR3 p-RB)
C[C@@H]1CN(S(C)(=O)=O)CC[C@@H]1Nc1ncc(C(F)(F)F)c(-c2ncc(C(O)C(F)F)s2)n1 (stereo partly drawn) [Example 146, 2,2-difluoro-1-(2-(2-(((3R,4S)-3-methyl-1-(methylsulfonyl)piperidin-4-yl)amino)-5-(trifluoromethyl)pyrimidin-4-yl)thiazol-5-yl)ethan-1-ol] | ≤ 100 nM | – | 100 to 500 nM
C[C@@H]1CN(S(=O)(=O)N2CCOCC2)CC[C@@H]1Nc1ncc(C(F)(F)F)c(-c2ncc(CC(C)(C)O)s2)n1 [Example 147, 2-methyl-1-(2-(2-(((3R,4S)-3-methyl-1-(morpholinosulfonyl)piperidin-4-yl)amino)-5-(trifluoromethyl)pyrimidin-4-yl)thiazol-5-yl)propan-2-ol] | ≤ 100 nM | – | > 500 nM
C[C@@H]1CN(S(=O)(=O)N2CCN(C)CC2)CC[C@@H]1Nc1ncc(C(F)(F)F)c(-c2ncc(CC(C)(C)O)s2)n1 [Example 148, 2-methyl-1-(2-(2-(((3R,4S)-3-methyl-1-((4-methylpiperazin-1-yl)sulfonyl)piperidin-4-yl)amino)-5-(trifluoromethyl)pyrimidin-4-yl)thiazol-5-yl)propan-2-ol] | ≤ 100 nM | – | > 500 nM
C[C@@H]1CN(S(=O)(=O)N(C)C)CC[C@@H]1Nc1ncc(C(F)(F)F)c(-c2ncc(CC(C)(C)O)s2)n1 [Example 149, (3R,4S)-4-((4-(5-(2-hydroxy-2-methylpropyl)thiazol-2-yl)-5-(trifluoromethyl)pyrimidin-2-yl)amino)-N,N,3-trimethylpiperidine-1-sulfonamide] | ≤ 100 nM | – | > 500 nM
C[C@@H]1CN(S(=O)(=O)c2cnn(C)c2)CC[C@@H]1Nc1ncc(C(F)(F)F)c(-c2ncc(C3(O)CC3)s2)n1 [Example 150, 1-(2-(2-(((3R,4S)-3-methyl-1-((1-methyl-1H-pyrazol-4-yl)sulfonyl)piperidin-4-yl)amino)-5-(trifluoromethyl)pyrimidin-4-yl)thiazol-5-yl)cyclopropan-1-ol] | ≤ 100 nM | – | 100 to 500 nM
C[C@@H]1CN(S(C)(=O)=O)CC[C@@H]1Nc1ncc(C(F)(F)F)c(-c2ncc(C3(O)CC3)s2)n1 [Example 151, 1-(2-(2-(((3R,4S)-3-methyl-1-(methylsulfonyl)piperidin-4-yl)amino)-5-(trifluoromethyl)pyrimidin-4-yl)thiazol-5-yl)cyclopropan-1-ol] | ≤ 100 nM | – | > 500 nM
CC(C)(O)Cc1cnc(-c2nc(N[C@H]3CCN(S(C)(=O)=O)C[C@H]3F)ncc2Cl)s1 [Example 152, 1-(2-(5-chloro-2-(((3R,4S)-3-fluoro-1-(methylsulfonyl)piperidin-4-yl)amino)pyrimidin-4-yl)thiazol-5-yl)-2-methylpropan-2-ol] | ≤ 100 nM | – | 100 to 500 nM
CC(C)(O)Cc1cnc(-c2nc(N[C@H]3CCN(S(C)(=O)=O)C[C@H]3F)ncc2C#N)s1 [Example 153, 2-(((3R,4S)-3-fluoro-1-(methylsulfonyl)piperidin-4-yl)amino)-4-(5-(2-hydroxy-2-methylpropyl)thiazol-2-yl)pyrimidine-5-carbonitrile] | ≤ 100 nM | – | > 500 nM
CC(C)(O)Cc1cnc(-c2nc(N[C@H]3CCN(S(C)(=O)=O)C[C@H]3F)ncc2C(F)F)s1 [Example 154, 1-(2-(5-(difluoromethyl)-2-(((3R,4S)-3-fluoro-1-(methylsulfonyl)piperidin-4-yl)amino)pyrimidin-4-yl)thiazol-5-yl)-2-methylpropan-2-ol] | ≤ 100 nM | – | > 500 nM

Next, values leading:

IC50 (CDK2/Cyclin E2) | IC50 (CDK4/Cyclin D1) | IC50 (OVCAR3 p-RB) | Structure (SMILES)
≤ 100 nM | ≤ 100 nM | ≤ 100 nM | Cc1sc(-c2nc(NC3CCN(S(=O)(=O)c4cn(C)cn4)CC3)ncc2C(F)(F)F)cc1C#N [Example 1, 2-Methyl-5-[2-[[1-(1-methylimidazol-4-yl)sulfonylpiperidin-4-yl]amino]-5-(trifluoromethyl)pyrimidin-4-yl]thiophene-3-carbonitrile]
≤ 100 nM | ≤ 100 nM | ≤ 100 nM | Cc1cnc(-c2nc(NC3CCN(S(=O)(=O)c4cnn(C)c4)CC3)ncc2C(F)(F)F)s1 [Example 2, N-(1-((1-methyl-1H-pyrazol-4-yl)sulfonyl)piperidin-4-yl)-4-(5-methylthiazol-2-yl)-5-(trifluoromethyl)pyrimidin-2-amine]
≤ 100 nM | – | > 500 nM | C[C@@H]1CN(S(C)(=O)=O)CC[C@@H]1Nc1ncc(C(F)(F)F)c(-c2ncc(C(O)C(F)(F)F)s2)n1 (stereo partly drawn) [Example 140, 2,2,2-trifluoro-1-(2-(2-(((3R,4S)-3-methyl-1-(methylsulfonyl)piperidin-4-yl)amino)-5-(trifluoromethyl)pyrimidin-4-yl)thiazol-5-yl)ethan-1-ol]
≤ 100 nM | – | 100 to 500 nM | C[C@@H]1CN(S(=O)(=O)c2cnn(C)c2)CC[C@@H]1Nc1ncc(C(F)(F)F)c(-c2ncc(C(O)C(F)(F)F)s2)n1 (stereo partly drawn) [Example 141, 2,2,2-trifluoro-1-(2-(2-(((3R,4S)-3-methyl-1-((1-methyl-1H-pyrazol-4-yl)sulfonyl)piperidin-4-yl)amino)-5-(trifluoromethyl)pyrimidin-4-yl)thiazol-5-yl)ethan-1-ol]
≤ 100 nM | – | ≤ 100 nM | C[C@@H]1CN(S(=O)(=O)c2cnn(C)c2)CC[C@@H]1Nc1ncc(C(F)(F)F)c(-c2ncc(C(C)(O)C(F)F)s2)n1 (stereo partly drawn) [Example 143, 1,1-difluoro-2-(2-(2-(((3R,4S)-3-methyl-1-((1-methyl-1H-pyrazol-4-yl)sulfonyl)piperidin-4-yl)amino)-5-(trifluoromethyl)pyrimidin-4-yl)thiazol-5-yl)propan-2-ol]
≤ 100 nM | – | 100 to 500 nM | C[C@@H]1CN(S(=O)(=O)c2cnn(C)c2)CC[C@@H]1Nc1ncc(C(F)(F)F)c(-c2ncc(C(O)CF)s2)n1 (stereo partly drawn) [Example 144, 2-fluoro-1-(2-(2-(((3R,4S)-3-methyl-1-((1-methyl-1H-pyrazol-4-yl)sulfonyl)piperidin-4-yl)amino)-5-(trifluoromethyl)pyrimidin-4-yl)thiazol-5-yl)ethan-1-ol]
≤ 100 nM | – | > 500 nM | C[C@@H]1CN(S(C)(=O)=O)CC[C@@H]1Nc1ncc(C(F)(F)F)c(-c2ncc(C(O)CF)s2)n1 (stereo partly drawn) [Example 145, 2-fluoro-1-(2-(2-(((3R,4S)-3-methyl-1-(methylsulfonyl)piperidin-4-yl)amino)-5-(trifluoromethyl)pyrimidin-4-yl)thiazol-5-yl)ethan-1-ol]
